These results are taken from patent US10407445B2, “Hepatitis C virus inhibitors” (ENANTA PHARMACEUTICALS, INC., priority 2013, dated 2019).

Assay type in all cases: cell-based
Common to all, as to conditions: Hepatitis C virus

For assay [1], the system named is HCV genotype 1a replicon, NS5A M28T Q30H. The experiment in a line: Transient replication assay, GT1a NS5A M28T Q30H.
For assay [2], the system named is GT3a-S52 replicon. The experiment in a line: Stable replicon assay, comparison to daclatasvir, GT3a-S52. The text has this:
The GT3a-S52 replicon plasmid pSGRlucneo-GT3a-S52-HDVR-(ISH) was synthesized by Genscript. This plasmid encodes a GT3a (strain S52, accession GU814264) bicistronic subgenomic replicon encoding the hRluc-Neo reporter gene in the first cistron and NS3-NS5B, driven by an encephalomyocarditis virus (EMCV) internal ribosome entry site (IRES), in the second cistron. The hepatitis delta ribozyme (HDVR) was included after the HCV 3′ NTR followed by a unique SpeI restriction site for linearization. This replicon encodes three cell culture adaptive mutations, P1226S (NS3), D1437H (NS3), and S2210I (NS5A), as described previously (Saeed et al 2012 Antimicrob. Agents Chemother. 54: 1878-1887). The GT4a-ED43 replicon plasmid pSGRlucneo-GT4a-ED43-HDVR-(KG) was synthesized by Genscript. […]
Stable HCV replicon cell lines were grown in complete media (Dulbecco's modified Eagle medium [DMEM], 2 mM L-glutamine, 0.1 mM essential amino acids, 1 mM sodium pyruvate, 10% fetal bovine serum) with the addition 500 μg/ml […] (G418). […] For stable and transient replicon assays, luciferase activity of compound-treated cells was measured relative to DMSO-treated cells after 72 h incubation using RENILLA-GLO™ Luciferase Assay (Promega). […]

For assay [3], the system named is HCV genotype 1a replicon, NS5A Q30K. The experiment in a line: Transient replication assay, GT1a NS5A Q30K.

Turning to `COC(=O)N[C@H](C(=O)N1C[C@]2(CCCOC2)C[C@H]1c1ncc(-c2ccc(-c3ccc4c(ccc5nc([C@@H]6C[C@@H]7CCC[C@@H]7N6C(=O)[C@@H](NC(=O)OC)C(C)C)[nH]c54)c3)cc2)[nH]1)C(C)C` [Compound 16], the EC50 (usually the concentration giving half of the maximal effect) in assay [1] was 24 nM; in assay [2], 4.7 nM; in assay [3], 0.05 nM.
In the case of `COC(=O)N[C@H](C(=O)N1CCC[C@H]1c1nc(-c2ccc(-c3ccc(-c4c[nH]c([C@@H]5CCCN5C(=O)[C@@H](NC(=O)OC)C(C)C)n4)cc3)cc2)c[nH]1)C(C)C` [Daclatasvir, reference compound], the EC50 in assay [1] amounted to 733 nM; in assay [2], 1.2 nM; in assay [3], 7.9 nM.
